Experimental data: the supplement of paper PMC9938120

How the values were obtained:
Assay in all cases: drug sensitivity score (DSS3, normalised partial AUC of % inhibition dose-response) (DSS (score)); higher = more sensitive (stronger inhibition of viability); extreme values may be limits of the assay
[1] = tested on: FMOC02_1 (patient-derived low-grade serous ovarian cancer cells); details: 72 h; library: FO5A; assay format: 2D, 384-well, CellTiter-Glo
Method in brief: (§1)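 Cells were dispensed onto 384-well flat clear-bottom plates already holding compounds at five concentrations over a 10,000-fold range, using patient-derived ovarian cancer cells at passage under 10. Incubation lasted 72 h at 37 °C in 5% CO2, after which CellTiter-Glo viability data were processed in Breeze. Higher drug sensitivity scores, each a partial area under the percent-inhibition dose-response curve divided by the log of the upper asymptote, mean more sensitive cells.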

[2] = tested on: FMOC02_2 (patient-derived low-grade serous ovarian cancer cells); details: 72 h; library: FO5A; assay format: 2D, 384-well, CellTiter-Glo
Method in brief: as §1

[3] = tested on: FMOC02_3 (patient-derived low-grade serous ovarian cancer cells); details: 72 h; library: FO5A; assay format: 2D, 384-well, CellTiter-Glo
Method in brief: as §1

[4] = tested on: FMOC03 (patient-derived mucinous ovarian cancer cells); details: 72 h; library: FO5A; assay format: 2D, 384-well, CellTiter-Glo
Method in brief: as §1

[5] = tested on: FMOC04 (patient-derived high-grade serous ovarian cancer cells); details: 72 h; library: FO5A; assay format: 2D, 384-well, CellTiter-Glo
Method in brief: as §1

[6] = tested on: FMOC06 (patient-derived mucinous ovarian cancer cells); details: 72 h; library: FO5A; assay format: 2D, 384-well, CellTiter-Glo
Method in brief: as §1

[7] = tested on: FMOC09 (patient-derived high-grade serous ovarian cancer cells); details: 72 h; library: FO5A; assay format: 2D, 384-well, CellTiter-Glo
Method in brief: as §1

[8] = tested on: FMOC11 (patient-derived high-grade serous ovarian cancer cells); details: 72 h; library: FO5A; assay format: 2D, 384-well, CellTiter-Glo
Method in brief: as §1

[9] = tested on: FMOC14 (patient-derived high-grade serous ovarian cancer cells); details: 72 h; library: FO5A; assay format: 2D, 384-well, CellTiter-Glo
Method in brief: as §1

[10] = tested on: FMOC17 (patient-derived low-grade serous ovarian cancer cells); details: 72 h; library: FO5A; assay format: 2D, 384-well, CellTiter-Glo
Method in brief: as §1

[11] = tested on: FMOC22 (patient-derived mucinous ovarian cancer cells); details: 72 h; library: FO5A; assay format: 2D, 384-well, CellTiter-Glo
Method in brief: as §1

[12] = tested on: FMOC24 (patient-derived high-grade serous ovarian cancer cells); details: 72 h; library: FO5A; assay format: 2D, 384-well, CellTiter-Glo
Method in brief: as §1

[13] = tested on: FMOC25_1 (patient-derived low-grade serous ovarian cancer cells); details: 72 h; library: FO4B; assay format: 2D, 384-well, CellTiter-Glo
Method in brief: as §1

[14] = tested on: FMOC25_2 (patient-derived low-grade serous ovarian cancer cells); details: 72 h; library: FO5A; assay format: 2D, 384-well, CellTiter-Glo
Method in brief: as §1

[15] = tested on: FMOC27 (patient-derived low-grade serous ovarian cancer cells); details: 72 h; library: FO5A; assay format: 2D, 384-well, CellTiter-Glo
Method in brief: as §1

[16] = tested on: FMOC28 (patient-derived low-grade serous ovarian cancer cells); details: 72 h; library: FO5A; assay format: 2D, 384-well, CellTiter-Glo
Method in brief: as §1

SMILES	drug sensitivity score [1]	drug sensitivity score [2]	drug sensitivity score [3]	drug sensitivity score [4]	drug sensitivity score [5]	drug sensitivity score [6]	drug sensitivity score [7]	drug sensitivity score [8]	drug sensitivity score [9]	drug sensitivity score [10]	drug sensitivity score [11]	drug sensitivity score [12]	drug sensitivity score [13]	drug sensitivity score [14]	drug sensitivity score [15]	drug sensitivity score [16]
C=CCc1cccc(/C=N/NC(=O)CN2CCN(Cc3ccccc3)CC2)c1O [PAC-1]	0	3.6	0	5.6	0	3.7	4.8	3.1	5	1.3	3.5	1.2	0.4	2.1	0	7.1
Clc1ccc(C(c2ccccc2Cl)C(Cl)Cl)cc1 (centres undefined) [Mitotane]	0	0	0	0	0	0	0	0	0	0	0	0	0	0	0	0
Cc1c(Cn2c(C)nc3c(C(=O)O)cc(N4CCOCC4)cc32)cccc1C(F)(F)F	0	6.3	2.2	0.5	0.65	0.6	0	0	2.5	0	0	3	3.5	11.4	0.1	7.2
Cc1cnc(-c2ccccc2C(C)C)nc1NCc1ccc(-n2ccnn2)cc1 [ML323]	0.1	3.1	0.2	0.9	0	0	0	0	0	0	0.3	0.8	0.6	1.7	0.6	0.9
c1cc(CN2CCCNCCNCCCNCC2)ccc1CN1CCCNCCNCCCNCC1 [Plerixafor]	0	0	0	0	0	0	0	0	0	0	0	0	0	0	0	0
CCS(=O)(=O)N1CC(CC#N)(n2cc(-c3ncnc4[nH]ccc34)cn2)C1 [Baricitinib]	0	0	0	0	0	0	0	0	0	0	0	0.05	0	0	0	0
C[C@H](Nc1ncnc2nc[nH]c12)c1cc2cccc(Cl)c2c(=O)n1-c1ccccc1 [Duvelisib]	0	0.1	0	0	0	1	0	0.7	0	0.5	0	0.65	0	0	0.1	0
C[C@@H](Oc1cc(-c2cnn(C3CCNCC3)c2)cnc1N)c1c(Cl)ccc(F)c1Cl [Crizotinib]	0.9	0.1	0	0	0.05	0	0	0	0	0	0	0.65	0	0.4	0	0
Cc1cc(C(C)Nc2ccccc2)c2nc(N3CCOCC3)cc(=O)n2c1 (centres undefined) [TGX-221]	2	3.3	0.8	1	0.35	1.1	0	0.3	0	2.4	0	0.75	1.7	2.6	2	0
C=C(c1ccc(C(=O)O)cc1)c1cc2c(cc1C)C(C)(C)CCC2(C)C [Bexarotene]	0	6	4.3	1.7	0	0	1.8	1.2	0	0.1	1.1	0.9	0.3	0	1.5	5.3
O=C(CCCCCCC(=O)Nc1ccc([C@H]2O[C@@H](CSc3nc(-c4ccccc4)c(-c4ccccc4)o3)C[C@@H](c3ccc(CO)cc3)O2)cc1)NO [Tubacin]	0	0.3	0.4	4.6	0	4.1	0	4.2	2.9	0	5.4	0.25	0	0	0.4	0.4
CCOc1ccn(-c2ccc(F)cc2)c(=O)c1C(=O)Nc1ccc(Oc2ccnc(N)c2Cl)c(F)c1	0	0.9	0	0	0	0	0	0	0	0	0	0	0	0	0	0
C[C@@H]1CCN(C(=O)CC#N)C[C@@H]1N(C)c1ncnc2[nH]ccc12 [Tofacitinib]	0	0.7	0.1	0	0	0.7	0	0	0	0	0	0.5	0	0.3	0	0.7
Cc1cnc(NC(=O)Nc2cc(Br)c(C)cc2OC[C@@H]2CNCCO2)cn1 [Rabusertib]	2.2	0	0.8	0	1.7	0.2	0	2	3.8	1.1	0	3.6	1	2	0	0
O=C(O)CC[C@H]1CC[C@@](c2cc(F)ccc2F)(S(=O)(=O)c2ccc(Cl)cc2)CC1 [MK-0752]	0	0	0.7	0	0	0.3	0	0	0	0	0	0	0	0	0	0.2
C[C@@H](C(=O)O)c1ccc(-c2ccccc2)c(F)c1 [Tarenflurbil]	0	0	0.3	0	0	0	0	0	0	0	0	1.05	0	0	0	0
NC(=O)c1cccc(-c2cccc(OC(=O)NC3CCCCC3)c2)c1 [URB597]	0	0	0.2	0	0	0	0	0	0	0	0	0	0	0	0	0
Cc1cc(C)c(CNC(=O)c2cc(-c3ccc(CN4CCOCC4)cc3)cc3c2cnn3C2CCCC2)c(=O)[nH]1 [EPZ-5687]	0.4	0.9	1.5	0.6	0.05	0	0	0	0	0.1	0.6	1.7	0	1.8	3.1	5.1
FC(F)(F)c1ccc(CNc2ccc(Cc3c[nH]c4ncc(Cl)cc34)cn2)cn1 [Pexidartinib]	3.9	2.5	3.1	0	0.1	0.9	4.1	2.6	0	1.4	0.3	1.3	1.6	0	0	0.1
CC[C@H](C)C(=O)O[C@H]1C[C@@H](C)C=C2C=C[C@H](C)[C@H](CC[C@@H]3C[C@@H](O)CC(=O)O3)[C@H]21 [Lovastatin]	0	0.3	3.9	0.5	0	0.9	3.3	1.3	0	1.1	2.1	2.5	0	1	0	0.1
Cc1ccc(Nc2nccc(N(C)c3ccc4c(C)n(C)nc4c3)n2)cc1S(N)(=O)=O [Pazopanib]	1.3	0.4	1.5	0	0	0	0	0	0	0	0	3.8	1.1	3	0.6	0
Cc1nc(NC(=O)N2CCC[C@H]2C(N)=O)sc1-c1ccnc(C(C)(C)C(F)(F)F)c1 [Alpelisib]	5.3	5.7	6.5	2.3	0.9	4.1	4.3	1.4	0	1.9	0.7	0.35	4.7	4.8	0.2	5.9
CS(=O)(=O)c1ccc(C(=O)Nc2ccc(Cl)c(-c3ccccn3)c2)c(Cl)c1 [Vismodegib]	0	0.4	0	0.6	0	0.3	0	0	0	0	0	1.95	0	0	0.8	0
CNC(=O)c1cc(Oc2ccc(NC(=O)Nc3ccc(Cl)c(C(F)(F)F)c3)c(F)c2)ccn1 [Regorafenib]	5.2	2	2.6	3.7	0	2.3	1.3	2.6	2.6	1.9	4	1.9	0.3	0.3	0.8	2.9
